{
  "source": "patent US20070243238A1",
  "about": "“Treating mouth sores with patches adhered to teeth” (priority 2006, published 2007)",
  "test_system": "mouth sores",
  "experiment": "Experimentation with amoxicillin on conventional patches for mouth sores",
  "format": "in vivo, human",
  "settings": "amoxicillin powder for oral suspension massaged into conventional patch and dried",
  "source_text": "Because use of antibiotics, antibacterials, and other pharmaceutical antimicrobials causes adverse side effects, experimentation with these medications has been limited. […] Conventional amoxicillin powder for preparation of oral suspension was used, which includes sugars and other excipients. The sugars act as a binder to the oral patch. The oral suspension is massaged into the patch and dried. Preferably, the amoxicillin powder is mixed into a stronger than normal liquid before being added to the patch.",
  "data": [
    {"smiles": "CC1(C)S[C@@H]2[C@H](NC(=O)[C@H](N)c3ccc(O)cc3)C(=O)N2[C@H]1C(=O)O", "note": "[amoxicillin]", "values": [
      {"measurement": "effect of medication on patch in treating mouth sores", "value": "works quite well"}
    ]}
  ]
}
